Measured values reported in US6936283B2, “Composition for stimulation of specific metallo-enzymes” (priority 2003, dated 2005).

Columns and labels:
[1] = molecular target: liver alcohol dehydrogenase (LADH); conditions: inhibit the activity of LADH enzyme, ref [1]; given in words only; cited from earlier work
[2] = test system: healthy individuals; experiment: Alcohol metabolism in test persons after vodka, alcohol level measured with CA 2000 Digital Alcohol Detector every 30 minutes; format: in vivo, human; conditions: from comparing the fructose-containing and fructose-free compositions
Procedure: The study presented in Table 2 and 3 included 10 individuals (6 males and 4 females, 24-57 years old).
In the first study (Table 2A) the test persons were given 8 oz. (ca.2.4 dl) of vodka mixed with 6 dl Sprite (The Coca Cola Company). The alcohol was consumed within one hour. 45 minutes after alcohol consumption each person drank 500 ml water. The alcohol level was then measured as described under.
One week later, the same test persons were given the same amount of vodka and Sprite. 45 minutes after alcohol consumption each test person drank 500 ml of the composition of the present invention. The alcohol level was then measured as described under.
Both part of the second study (Table 2 B) was performed in the same way as described for the study presented […], with the exception that the test persons were given a 500 ml solution containing 90 g fructose, 90 mg caffeine and 500 mg vitamin C instead of the composition of the present invention. The alcohol level was again measured as described below.
The alcohol level (measured in 0/00) was measured with a CA 2000 Digital Alcohol Detector once every 30 minutes in each experiment. Each value is an average of four parallel measurements.

Structure (SMILES) | Ki [1] | contribution to the acceleration of alcohol degradation [2]
N[C@@H](CS)C(=O)O [cysteine] | in the uM-mM area | 
N[C@@H](CCC(=O)N[C@@H](CS)C(=O)NCC(=O)O)C(=O)O [glutathione] | in the uM-mM area | 
CSCC[C@H](N)C(=O)O [methionine] | in the uM-mM area | 
CC(=O)N[C@@H](CS)C(=O)O [acetylcysteine] | in the uM-mM area | 
O=C(CO)[C@@H](O)[C@H](O)[C@H](O)CO [fructose] |  | 20-25%
